{
  "source": "patent US12084680B2",
  "about": "“Methods for efficient derivation of human motor neurons from diverse spinal regions” (Wisconsin Alumni Research Foundation, priority 2016, dated 2024)",
  "molecules": {"B1": {"name": "WNT3A: soluble WNT3A, Wnt polypeptide ligand activating Wnt/β-catenin signaling (protein, UniProt P56704 19-352, looked up)", "Protein Wnt-3a": "SYPIWWSLAVGPQYSSLGSQPILCASIPGLVPKQLRFCRNYVEIMPSVAEGIKIGIQECQHQFRGRRWNCTTVHDSLAIFGPVLDKATRESAFVHAIASAGVAFAVTRSCAEGTAAICGCSSRHQGSPGKGWKWGGCSEDIEFGGMVSREFADARENRPDARSAMNRHNNEAGRQAIASHMHLKCKCHGLSGSCEVKTCWWSQPDFRAIGDFLKDKYDSASEMVVEKHRESRGWVETLRPRYTYFKVPTERDLVYYEASPNFCEPNPETGSFGTRDRTCNVSSHGIDGCDLLCCGRGHNARAERRREKCRCVFHWCCYVSCQECTRVYDVHTCK"}, "B2": {"name": "BMP4: a dorsal patterning factor (protein, UniProt P12644 293-408, looked up)", "Bone morphogenetic protein 4": "SPKHHSQRARKKNKNCRRHSLYVDFSDVGWNDWIVAPPGYQAFYCHGDCPFPLADHLNSTNHAIVQTLVNSVNSSIPKACCVPTELSAISMLYLDEYDKVVLKNYQEMVVEGCGCR"}},
  "type_in_all_cases": "cell-based, human",
  "key": {"[1]": {"system": "H9 hESCs", "test": "NKX6.1 induction in neurally differentiating H9 hESCs after 24 h treatment (flow cytometry, RT-PCR, day 3)", "protocol": "(§1) NKX6.1 is the earliest expressed marker in the motor neuron development cascade in vivo, so we examined its expression in response to Wnt/β-catenin, RA, and SHH signaling during hPSC motor neuron differentiation. H9 hESCs were differentiated in E6 medium for 2 days to initiate neural fate acquisition34 and then treated with combinations of RA, purmorphamine (PM, a small molecule agonist of SHH signaling), and CHIR for 24 h (FIG. 4A). […] Using the H9 ishcat2 line, we observed that CHIR-mediated induction of NKX6.1 was β-catenin-dependent, as the optimal 3 days of shRNA-mediated CTNNB1 knockdown upstream of CHIR treatment was required to maximally reduce NKX6.1 induction to 44±1% (FIG. 4E). The correlation between NKX6.1 knockdown and days of doxycycline treatment was presumably due to the time delay for shRNA synthesis and subsequent gene knockdown in Tet-on systems. […] Exogenously added WNT3A (200 ng/mL) could also induce NKX6.1 expression (60±14%) (FIG. 4G), providing further evidence for the involvement of Wnt/β-catenin signaling in this process. In contrast, simultaneous treatment with CHIR and BMP4 (200 ng/mL), a dorsal patterning factor, reduced the expression of NKX6.1 from 91±1% to 68±2% (FIG. 4H).\n(§2) hESCs were dissociated with accutase (Thermo Fisher Scientific) and reseeded at 1×10^5 cells/cm2 in E8 medium containing 10 μM ROCK inhibitor (Y27632; R&D Systems) on 6-well polystyrene tissue culture plates coated with 100 μg/mL poly-L-ornithine (PLO; Sigma) and 8 μg/well VTN-NC. The timelines and relevant growth factors/small molecules for all differentiation procedures are described in detail in the Results section and its accompanying figures. Cells were differentiated for various amounts of time in E6 medium containing the same insulin concentration as E8 medium as described above with varying combinations of soluble factors (product information and concentration ranges are found in Table 2). For neuromesodermal induction and HOX propagation, cells were sequentially cultured with FGF8b, CHIR99021 (CHIR), GDF11, and dorsomorphin (DM) as previously described. Briefly, to initiate the neuromesodermal state, cells were changed to E6 medium followed by addition of FGF8b (200 ng/ml) 24 h later. To generate cervical neuromesodermal progenitors, cells were washed with PBS, treated with accutase, and re-seeded in E6 medium containing 200 ng/ml FGF8b, 3 μM CHIR, and 10 μM Y27632 on VTN-NC-coated plates at a density of 1.5×10^5 cells/cm^2 for 48 h. To generate thoracic neuromesodermal progenitors, cells were passaged again after 72 h of CHIR treatment and re-seeded at different densities as described in the text.\nThoracic identity was reached after an additional 24 h. Then, to reach the lumbosacral level, cells were given 30 ng/ml GDF11 and 1 μM DM for an additional 48 h. For neuroectoderm induction and generation of OLIG2^+ progenitors, FGF8b was removed at the designated time points and the concentration of CHIR was increased for 6 h as described in the text, followed by a transition to media containing RA, PM, and SHH for a period of 48 h. For differentiation of the OLIG2^+ progenitors to motor neurons, cells were subcultured by en bloc passage using a cell scraper, reseeded at a 1:200 ratio in Matrigel-coated 8-well chamber slides, and differentiated for 14 days in E6 medium containing 1 μM RA, 100 nM PM, and 100 ng/mL SHH, with media exchange every 3 days (10 μM Y27632 was included during the en bloc passaging step and removed after the first media exchange). For differentiation of lumbar cultures, 1 μM DM was included in all steps. For the myoblast co-culture experiments, OLIG2^+ cultures were en bloc passaged, frozen in E6 medium containing 10% DMSO, shipped to a different location, and thawed 1:10 in 6-well plates under the same conditions as described in FIG. 5. To facilitate neuronal maturation prior to myoblast co-culture, 5 μM DAPT (Tocris) was added from days 8-14 post-thaw. […]"}, "[2]": {"system": "H9 ishcat2 hESC line", "test": "Doxycycline-inducible shRNA knockdown of β-catenin (CTNNB1) during motor neuron differentiation", "conditions": "doxycycline 2 μg/mL", "protocol": "In the ventral neural tube, SHH signaling generates OLIG2^+ motor neuron progenitors that subsequently mature into post-mitotic ISL1^+ and/or HB9^+ motor neurons. To probe the role of Wnt/β-catenin signaling during this process in vitro, we utilized the H9 ishcat2 hESC line, which harbors a doxycycline-inducible shRNA against CTNNB1.\nSimilarly, we induced β-catenin knockdown while differentiating the hESCs into motor neurons via E6 neural induction with RA (1 μM), purmorphamine (PM, a small molecule agonist of sonic hedgehog signaling; 100 nM), and neurotrophic factor treatment, as previously described (FIG. 3A).\nas §1\nhESCs were maintained on Matrigel (BD Biosciences) in E8 medium but with 10-fold lower insulin concentration (2 mg/L). Cell lines used in this study were H9 hESCs (passage 25-45) and H9 ishcat2 hESCs (passage 35-45). […]"}, "[3]": {"system": "H9 hESCs", "test": "Induction of NKX6.1+/PAX6+/OLIG2+ motor neuron progenitors from cervical neuromesoderm (flow cytometry, immunocytochemistry)", "conditions": "RA 1 μM for 2 days without PM or SHH, day 6", "protocol": "To begin, we sequentially differentiated H9 hESCs in E6 media for 1 day, and FGF8b (200 ng/mL) for 1 day, and FGF8b and CHIR (3 μM) for 2 days to generate cervical neuromesoderm (FIGS. 5A-5B). Then, we screened the effects of CHIR, PM, and SHH treatment on NKX6.1^+/PAX6^+/OLIG2^+ motor neuron progenitor induction while transitioning to media containing 1 μM RA (FIGS. 5A-5D). Prior to the addition of RA, NKX6.1 was expressed in the cervical neuromesodermal state at day 4 (80±18% NKX6.1^+; data not shown), likely due to the CHIR-induced Wnt/β-catenin signaling (FIGS. 4A-4H). Transitioning the neuromesodermal progenitors to RA-containing media for 2 days induced HOXB4^+/HOXC6^+/HOXC9^−/HOXD10^−/PAX6^+ cervical neuroectoderm in all conditions (FIGS. 5B-5C), as expected. However, without co-activation of SHH signaling by PM or SHH, NKX6.1 expression was quickly lost by day 6 (97±1% PAX6^+, 17±3% NKX6.1^+) (FIG. 5C). […] To bolster this claim, we also analyzed the abundance of full-length GLI3 versus its truncated repressor form by western blot. […] Thus, Wnt/β-catenin signaling is necessary to induce ventral identity, but its continuous activation during OLIG2 induction by SHH signaling is detrimental to motor neuron differentiation, possibly due to activation of the GLI3 repressor.\nNext, we tested conditions where CHIR was removed after transitioning to media containing RA (1 μM), PM (2 μM), and SHH (2 μg/mL) (FIGS. 5A-5C).\nSince NKX6.1 is a pre-requisite to OLIG2 expression, we hypothesized that the Wnt/β-catenin signaling-dependent NKX6.1 expression levels may still be too low for efficient OLIG2^+ motor neuron progenitor induction. Therefore, the concentration of CHIR was boosted to 6 or 9 μM for 6 h immediately prior to transitioning to E6 medium containing RA, PM, and SHH without CHIR (FIG. 5A). The 9 μM CHIR boost followed by a transition to media containing 1 μM RA, 2 μM PM, and 2 μg/mL SHH yielded optimal motor neuron progenitor cultures with highly uniform NKX6.1, OLIG2, and PAX6 expression (96±1%, 85±9%, and 97±2%, respectively) (FIGS. 5C-5D).\nas §2\n(§3) Thoracic identity was reached after an additional 24 h. Then, to reach the lumbosacral level, cells were given 30 ng/ml GDF11 and 1 μM DM for an additional 48 h. For neuroectoderm induction and generation of OLIG2^+ progenitors, FGF8b was removed at the designated time points and the concentration of CHIR was increased for 6 h as described in the text, followed by a transition to media containing RA, PM, and SHH for a period of 48 h. […]"}, "[4]": {"system": "H9 hESCs", "test": "Differentiation of cervical OLIG2+ progenitors to post-mitotic motor neurons (immunocytochemistry, flow cytometry)", "conditions": "20 total days of differentiation, SHH, or SAG 2 μM instead of SHH", "from_the_text": "Having optimized the efficiency of OLIG2 induction at diverse spinal cord regions, next region-specific post-mitotic motor neurons were generated. Cervical OLIG2^+ motor neuron progenitors were en bloc passaged and gradually differentiated to ISL1^+ motor neurons over a 14-day period (FIGS. 7A-7B). […] The extensive co-labeling of ISL1^+ cells with SMI32-reactive non-phosphorylated neurofilament heavy chain is indicative of motor neuron identity. Widespread HB9/βIII-tubulin motor neuron expression was also observed throughout the cultures (FIG. 7C). Since spinal motor neurons in vivo are observed to be both ISL1^+, ISL1^+/HB9^+, and HB9^+ but are all SMI32 reactive, flow cytometry of the SMI32^+ cells is proposed to best represent the total percentage of motor neurons in each culture. Moreover, the use of SAG (2 μM), a small molecule Smoothened agonist45, instead of SHH yielded similar efficiencies (72±4% SMI32^+, 63±13% ISL1^+, and 65±15% HB9^+) (FIG. 7C). High efficiencies were also observed for thoracic cultures, whereas lumbar cultures saw a ˜10% decrease in efficiency (FIG. 7C). For all regions, ISL1^+ motor neurons predominantly co-labeled with FOXP1 (70-80% in cervical motor neurons and 40-60% in thoracic and lumbar motor neurons) versus LHX3 markers (20-30% in cervical and thoracic cultures and 15-20% in lumbar cultures) (FIG. 7C). […] These trends agree with the observed distribution of columnar motor neuron phenotype in the cervical, thoracic and lumbar spinal cord in vivo, and it is consistent with our prior observations of motor neuron populations derived using the deterministic HOX patterning protocol.\nas §3"}},
  "data": [
    {"molecule": "CC1=C2C[C@H]3[C@@H](CC=C4C[C@@H](O)CC[C@@]43C)[C@@H]2CC[C@]12O[C@@H]1C[C@H](C)CN[C@H]1[C@H]2C", "note": "[Cyclopamine]", "values": [
      {"measurement": "NKX6.1 expression (flow cytometry)", "setting": "[1]; CHIR 6 μM plus Cyclopamine 5 μM, 24 h", "value": "did not diminish NKX6.1 expression"}
    ]},
    {"molecule": "C[C@H]1c2cccc(O)c2C(=O)C2=C(O)[C@]3(O)C(=O)C(C(N)=O)=C(O)[C@@H](N(C)C)[C@@H]3[C@@H](O)[C@@H]21", "note": "[Doxycycline]", "values": [
      {"measurement": "reduction of CTNNB1 expression (qPCR relative to RPS18)", "setting": "[2]; day 3", "value": 87, "unit": "%"},
      {"measurement": "NKX6.1 expression (flow cytometry)", "setting": "[2]; β-catenin knockdown, day 16", "value": "2±1", "unit": "%"}
    ]},
    {"molecule": "c1ccc2c(Oc3nc(Nc4ccc(N5CCOCC5)cc4)c4ncn(C5CCCCC5)c4n3)cccc2c1", "note": "[PM, Purmorphamine]", "values": [
      {"measurement": "NKX6.1 induction within 24 h", "setting": "[1]; combined RA 1 μM and PM 1 μM, no CHIR", "value": "did not induce NKX6.1"}
    ]},
    {"molecule": "CC1=C(/C=C/C(C)=C/C=C/C(C)=C/C(=O)O)C(C)(C)CCC1", "note": "[RA, Retinoic acid]", "values": [
      {"measurement": "NKX6.1+ cells", "setting": "[3]", "value": "17±3", "unit": "%"},
      {"measurement": "PAX6+ cells", "setting": "[3]", "value": "97±1", "unit": "%"}
    ]},
    {"molecule": "CNC1CCC(N(Cc2cccc(-c3ccncc3)c2)C(=O)c2sc3ccccc3c2Cl)CC1", "note": "(centres unmarked) [SAG]", "values": [
      {"measurement": "HB9+ cells", "setting": "[4]", "value": "65±15", "unit": "%"},
      {"measurement": "ISL1+ cells", "setting": "[4]", "value": "63±13", "unit": "%"},
      {"measurement": "SMI32+ cells", "setting": "[4]", "value": "72±4", "unit": "%"}
    ]},
    {"molecule": "B1", "values": [
      {"measurement": "NKX6.1 expression (flow cytometry)", "setting": "[1]; WNT3A 200 ng/mL, day 3", "value": "60±14", "unit": "%"}
    ]},
    {"molecule": "B2", "values": [
      {"measurement": "NKX6.1 expression (flow cytometry)", "setting": "[1]; simultaneous CHIR 4 μM and BMP4 200 ng/mL, day 3", "value": "68±2", "unit": "%"}
    ]}
  ]
}
